# Source: PMC10257182, “Discovery of senolytics using machine learning” (Nature Communications, 2023)
# Several values for one entry are separate records, joined by “and”; a condition that tells them apart may be missing. Equal values may be shown once. Read-outs that look alike come from different tables or passages of the source.
# Tested on: non-senescent control IMR90 ER:RAS cells
# Assay: Nuclei count (Hoechst, high content imaging) senolytic assay, OIS model, non-senescent control cells
# Format: cell-based, human
# Source text: To test for senolytic activity, we compared the effect of each compound on the total cell number (automated high content image-based analysis of total number of nuclei per well) in non-senescent and senescent IMR90 ER:RAS cultures treated with the top hits from the computational screen (Figs. 2e and 3a–d and Supplementary Fig. 4a–c). The drop in cell number compared to untreated controls is indicated by the nuclei count and reflects cell death[13],[15]. As positive control, we employed ouabain, a cardiac glycoside with well characterised senolytic activity.
# We performed experimental validation of the compounds with z-score > 8 (Fig. 2e). […] We employed two cellular models of senescence: one of OIS and a second one of TIS. For the OIS case, we utilised IMR90 ER:RAS cells with 4-OHT at 100 nM. […] For the TIS model, we used A549 cells with etoposide at 100 μM. The exposure of the cells to etoposide lasted 48 h, after which period the cells were cultivated for a further three days with normal media.
# IMR90 (CCL-186) human foetal lung fibroblasts and A549 (CCL-185) human lung adenocarcinoma cells were obtained from the American Type Culture Collection (ATCC, Manassas, VA). The cell lines were confirmed to be mycoplasma negative (Lonza MycoAlert, cat #LT07-118). IMR90 ER:RAS is a derivative of IMR90 cells expressing a switchable version of oncogenic H-Ras[84]. IMR90 ER:RAS and A549 cells were maintained in Dulbecco’s Modified Eagle Medium (DMEM, ThermoFisher) supplemented with foetal bovine serum (10%), L-glutamine (2 mM, ThermoFisher), and antibiotic-antimycotic solution (1%, ThermoFisher) and incubated under standard tissue culture conditions (37 °C and 5% CO2). For induction of the senescent phenotype, IMR90-ER:RAS cells were cultured in hydroxytamoxifen (4-OHT) (Sigma) added media at 100 nM final concentration. IMR90 were kept in culture for over 27 passages for replicative senescence. Cells were tested for mycoplasma on a regular basis.
# Cells were seeded (50 μL per well) into 384-well plates (IMR90 ER:RAS cells in Nunc Optical Bottom Polybase Microplates [#142761, Thermo Scientific, Rochester, NY] and A549 cells in CELLSTAR Cell Culture Microplates [#781091, Greiner Bio-One, Kremsmünster, Austria]). Cells were incubated under standard tissue culture conditions for 24 h before the addition of compounds. Passage 14 IMR90 ER:RAS cells were seeded at 1300 cells per well in the control condition, and at 1600 cells per well in the senescent case. Passage 34 A549 cells were seeded at 7000 cells per well in the control condition, and at 10,000 cells per well in the senescent case.
# Dose response plates were prepared with a DMSO control and a 10-point […] concentration range, and added to the compounds using a D300e digital dispenser (Tecan Trading AG, Switzerland) at a final concentration of between 10 μM and 10 nM. Every screened condition was carried out in triplicate. After 72 h of incubation with exposure to the compounds, cells were fixed by the addition of an equal volume of formaldehyde (8%, 50 μL; #BP531-500, Fisher Bioreagents, Fisher Scientific, Loughborough, Leicestershire) to the existing media, incubated at room temperature (30 min), and washed three times in phosphate-buffered saline (PBS). Cells were then permeabilised in Triton-X100 (0.1%, 50 μL) and incubated at room temperature (30 min) followed by three more washes with PBS.
# Cells were stained with Hoechst 33342 for nuclei count (excitation/emission wavelength at 387/447 […], DAPI channel, original concentration at 10 mg/ml, final concentration at 2 μg/ml; H1399, Molecular Probes, Eugene, OR). The staining solution was prepared in bovine serum albumin solution (10%). The staining solution was added to each well (30 μL) and incubated in the dark at room temperature (30 min), followed by three washes with PBS and no final aspiration. Plates were foil sealed.
smiles,measurement,setting,value
"C=Cc1c(C)c2cc3nc(cc4[nH]c(cc5nc(cc1[nH]2)C(C)=C5CCC(=O)O)c(CCC(=O)OC)c4C)[C@@]1(C)C3=CC=C(C(=O)OC)[C@H]1C(=O)OC [Verteporfin, verteporfin, reference compound]",% Cell Survival,"Control cells, log (dose) [M] -5, individual replicates, SUP FIG 4C",101.159% and 129.718% and 89.9175%
same,% Cell Survival,"Control cells, log (dose) [M] -5.33, individual replicates, SUP FIG 4C",94.2029% and 128.701% and 95.0504%
same,% Cell Survival,"Control cells, log (dose) [M] -5.66, individual replicates, SUP FIG 4C",94.8792% and 127.571% and 91.1091%
same,% Cell Survival,"Control cells, log (dose) [M] -6, individual replicates, SUP FIG 4C",109.082% and 120% and 89.2759%
same,% Cell Survival,"Control cells, log (dose) [M] -6.33, individual replicates, SUP FIG 4C",132.367% and 79.661% and 117.324%
same,% Cell Survival,"Control cells, log (dose) [M] -6.66, individual replicates, SUP FIG 4C",84.5411% and 110.056% and 78.5518%
same,% Cell Survival,"Control cells, log (dose) [M] -7, individual replicates, SUP FIG 4C",102.222% and 109.492% and 85.1512%
same,% Cell Survival,"Control cells, log (dose) [M] -7.33, individual replicates, SUP FIG 4C",97.1981% and 115.141% and 84.143%
same,% Cell Survival,"Control cells, log (dose) [M] -7.66, individual replicates, SUP FIG 4C",102.705% and 116.158% and 105.408%
same,% Cell Survival,"Control cells, log (dose) [M] -8, individual replicates, SUP FIG 4C",88.6957% and 107.684% and 93.9505%
same,Mean % Cell Survival,"Control, log (dose) [M] -5, 72 h, mean n=3 (Fig 3C)",106.931%
same,Mean % Cell Survival,"Control, log (dose) [M] -5.33, 72 h, mean n=3 (Fig 3C)",105.985%
same,Mean % Cell Survival,"Control, log (dose) [M] -5.66, 72 h, mean n=3 (Fig 3C)",104.52%
same,Mean % Cell Survival,"Control, log (dose) [M] -6, 72 h, mean n=3 (Fig 3C)",106.119%
same,Mean % Cell Survival,"Control, log (dose) [M] -6.33, 72 h, mean n=3 (Fig 3C)",109.784%
same,Mean % Cell Survival,"Control, log (dose) [M] -6.66, 72 h, mean n=3 (Fig 3C)",91.0498%
same,Mean % Cell Survival,"Control, log (dose) [M] -7, 72 h, mean n=3 (Fig 3C)",98.955%
same,Mean % Cell Survival,"Control, log (dose) [M] -7.33, 72 h, mean n=3 (Fig 3C)",98.8274%
same,Mean % Cell Survival,"Control, log (dose) [M] -7.66, 72 h, mean n=3 (Fig 3C)",108.09%
same,Mean % Cell Survival,"Control, log (dose) [M] -8, 72 h, mean n=3 (Fig 3C)",96.7766%
same,% Cell Survival,"Control, log (dose) [M] -5",103.991% and 103.701% and 133.622%
same,% Cell Survival,"Control, log (dose) [M] -5.33",95.6459% and 122.354% and 108.369%
same,% Cell Survival,"Control, log (dose) [M] -5.66",83.672% and 98.7417% and 101.948%
same,% Cell Survival,"Control, log (dose) [M] -6",86.9376% and 90.2295% and 99.9278%
same,% Cell Survival,"Control, log (dose) [M] -6.33",101.524% and 93.2642% and 93.3622%
same,% Cell Survival,"Control, log (dose) [M] -6.66",98.4035% and 102.221% and 102.958%
same,% Cell Survival,"Control, log (dose) [M] -7",87.0827% and 92.5981% and 92.8571%
same,% Cell Survival,"Control, log (dose) [M] -7.33",115.893% and 95.1147% and 114.069%
same,% Cell Survival,"Control, log (dose) [M] -7.66",103.991% and 94.8187% and 102.958%
same,% Cell Survival,"Control, log (dose) [M] -8",101.306% and 100.444% and 92.0635%
"Cc1cnc(C(=O)N[C@H]2CCCCC/C=C\[C@@H]3C[C@@]3(C(=O)NS(=O)(=O)C3CC3)NC(=O)[C@@H]3C[C@@H](Oc4nc5ccccc5c5ccccc45)CN3C2=O)cn1 [Paritaprevir, paritaprevir, reference compound]",viability at 10 µM,"Homo sapiens, IMR-90, 72 h, Control, log (dose) [M] -5, 72 h, mean n=3 (Fig 3C), read-out: Mean % Cell Survival",95%
same,viability at 4.677 µM,"Homo sapiens, IMR-90, 72 h, Control, log (dose) [M] -5.33, 72 h, mean n=3 (Fig 3C), read-out: Mean % Cell Survival",90.1%
same,viability at 2.188 µM,"Homo sapiens, IMR-90, 72 h, Control, log (dose) [M] -5.66, 72 h, mean n=3 (Fig 3C), read-out: Mean % Cell Survival",102%
same,viability at 1 µM,"Homo sapiens, IMR-90, 72 h, Control, log (dose) [M] -6, 72 h, mean n=3 (Fig 3C), read-out: Mean % Cell Survival",78.8%
same,viability at 0.4677 µM,"Homo sapiens, IMR-90, 72 h, Control, log (dose) [M] -6.33, 72 h, mean n=3 (Fig 3C), read-out: Mean % Cell Survival",87.9%
same,viability at 0.2188 µM,"Homo sapiens, IMR-90, 72 h, Control, log (dose) [M] -6.66, 72 h, mean n=3 (Fig 3C), read-out: Mean % Cell Survival",82.7%
same,viability at 0.1 µM,"Homo sapiens, IMR-90, 72 h, Control, log (dose) [M] -7, 72 h, mean n=3 (Fig 3C), read-out: Mean % Cell Survival",81.5%
same,viability at 0.04677 µM,"Homo sapiens, IMR-90, 72 h, Control, log (dose) [M] -7.33, 72 h, mean n=3 (Fig 3C), read-out: Mean % Cell Survival",87.1%
same,viability at 0.02188 µM,"Homo sapiens, IMR-90, 72 h, Control, log (dose) [M] -7.66, 72 h, mean n=3 (Fig 3C), read-out: Mean % Cell Survival",88.3%
same,viability at 0.01 µM,"Homo sapiens, IMR-90, 72 h, Control, log (dose) [M] -8, 72 h, mean n=3 (Fig 3C), read-out: Mean % Cell Survival",101%
same,viability at 10 µM,"Homo sapiens, IMR-90, Control cells, log (dose) [M] -5, individual replicates, SUP FIG 4C, read-out: % Cell Survival",93.1%
same,viability at 4.677 µM,"Homo sapiens, IMR-90, Control cells, log (dose) [M] -5.33, individual replicates, SUP FIG 4C, read-out: % Cell Survival",86.6%
same,viability at 0.4677 µM,"Homo sapiens, IMR-90, Control cells, log (dose) [M] -6.33, individual replicates, SUP FIG 4C, read-out: % Cell Survival",89.5%
same,viability at 0.2188 µM,"Homo sapiens, IMR-90, Control cells, log (dose) [M] -6.66, individual replicates, SUP FIG 4C, read-out: % Cell Survival",83.1%
same,viability at 0.1 µM,"Homo sapiens, IMR-90, Control cells, log (dose) [M] -7, individual replicates, SUP FIG 4C, read-out: % Cell Survival",73.5%
same,viability at 0.04677 µM,"Homo sapiens, IMR-90, Control cells, log (dose) [M] -7.33, individual replicates, SUP FIG 4C, read-out: % Cell Survival",83%
same,viability at 0.02188 µM,"Homo sapiens, IMR-90, Control cells, log (dose) [M] -7.66, individual replicates, SUP FIG 4C, read-out: % Cell Survival",88%
same,viability at 0.01 µM,"Homo sapiens, IMR-90, Control cells, log (dose) [M] -8, individual replicates, SUP FIG 4C, read-out: % Cell Survival",102%
same,viability at 10 µM,"Homo sapiens, IMR-90, Control, log (dose) [M] -5, read-out: % Cell Survival",96%
same,viability at 4.68 µM,"Homo sapiens, IMR-90, Control, log (dose) [M] -5.33, read-out: % Cell Survival",96.2%
same,viability at 2.19 µM,"Homo sapiens, IMR-90, Control, log (dose) [M] -5.66, read-out: % Cell Survival",99.1%
same,viability at 1 µM,"Homo sapiens, IMR-90, Control, log (dose) [M] -6, read-out: % Cell Survival",96.6%
same,viability at 0.468 µM,"Homo sapiens, IMR-90, Control, log (dose) [M] -6.33, read-out: % Cell Survival",97.8%
same,viability at 0.219 µM,"Homo sapiens, IMR-90, Control, log (dose) [M] -6.66, read-out: % Cell Survival",99.6%
same,viability at 0.1 µM,"Homo sapiens, IMR-90, Control, log (dose) [M] -7, read-out: % Cell Survival",94.1%
same,viability at 0.04677 µM,"Homo sapiens, IMR-90, Control, log (dose) [M] -7.33, read-out: % Cell Survival",94.2%
same,viability at 0.0219 µM,"Homo sapiens, IMR-90, Control, log (dose) [M] -7.66, read-out: % Cell Survival",97%
same,viability at 0.01 µM,"Homo sapiens, IMR-90, Control, log (dose) [M] -8, read-out: % Cell Survival",101%
